Data: patent publication US6262086A, “Pharmaceutical unit dosage form” (priority 2000, dated 2001)
Several values for one entry are separate records, joined by “and”; a condition that tells them apart may be missing. Identical values can stand only once.

Experiment: Solubility assessment as a function of HPβCD concentration
Format: physicochemical
Procedure: Solubility studies were performed by the addition of a known mass of 5(6)-methoxy-2-[[(4-methoxy-3,5-dimethyl-2-pyridinyl)-methyl]sulfinyl]-1H- benzimidazole and/or HPβCD to a given volume of solvent system. Solubilities were determined by observation, as the maximum concentration at which 5(6)-methoxy-2-[[(4-methoxy-3,5-dimethyl-2-pyridinyl)-methyl]sulfinyl]-1H- benzimidazole completely dissolved. Additionally, concentrations of 5(6)-methoxy-2-[[(4-methoxy-3,5-dimethyl-2-pyridinyl)-methyl]sulfinyl]-1H- benzimidazole and HPβCD at set molar ratios were solubilized in systems of high pH (adjusted as high as 12.2, with 1N NaOH), the pH was adjusted (using 2N HCl) in a stepwise downward manner until precipitation occurred.
The solubility of 5(6)-methoxy-2-[[(4-methoxy-3,5-dimethyl-2-pyridinyl)-methyl]sulfinyl]-1H- benzimidazole was assessed as a function of HPβCD concentration in water.
The procedure according to Example 86 was repeated except that water with a borate buffer (pH of 8) was employed.
The procedure according to Example 86 was repeated except that water with a phosphate buffer (pH of 11) was employed.

With `COc1ccc2[nH]c([S+]([O-])Cc3ncc(C)c(OC)c3C)nc2c1` (stereo not drawn) [5(6)-methoxy-2-[[(4-methoxy-3,5-dimethyl-2-pyridinyl)-methyl]sulfinyl]-1H-benzimidazole] the “dependence of solubility on HPβCD concentration” value (water with a borate buffer (pH of 8)) was “increase linearly as a function of HPβCD concentration”, the “dependence of solubility on HPβCD concentration” value (water with a phosphate buffer (pH of 11)) was “increase linearly as a function of HPβCD concentration” and the solubility (water, read-out: aqueous solubility in water) was ~300 µg/mL and ~900 µM.
